Data as given in patent publication US9340577B2, “HLA binding motifs and peptides and their uses” (priority 1992, dated 2016).
No end group written: not given here.

Key:
Assay in all cases: biochemical
DRB5*0101 = DRB5*0101 (Homo sapiens, UniProt P01903+Q30154); settings: Binding affinity DRB5 *0101
DR7 (DRB1*0701) = DR7 (DRB1*0701) (Homo sapiens, UniProt P01903+P01911, A100R/A102G/A103Q/D57E/D86V/E43K/F76Y/K127E/L162R/M171V/P40G/Q125H/Q99D/R33Q/R42Y/R54Q/S133A/S66F/T210M/V115G/Y107V/Y59L/Y89S); format: binding
DRB1*1501 = DRB1*1501 (Homo sapiens, UniProt P01903+P01911); format: binding
DRB1*1302 = DRB1*1302 (Homo sapiens, UniProt P01903+P01911, A100E/A169T/K41T/L162R/M171V/P40S/Q125H/Q178H/Q39Y/Q99D/R42S/S66N/T262R/V115G/W38E/Y61H); format: binding
Sequence of DRB1*1302 (P01903 26-254 limits assumed, other chains not shown): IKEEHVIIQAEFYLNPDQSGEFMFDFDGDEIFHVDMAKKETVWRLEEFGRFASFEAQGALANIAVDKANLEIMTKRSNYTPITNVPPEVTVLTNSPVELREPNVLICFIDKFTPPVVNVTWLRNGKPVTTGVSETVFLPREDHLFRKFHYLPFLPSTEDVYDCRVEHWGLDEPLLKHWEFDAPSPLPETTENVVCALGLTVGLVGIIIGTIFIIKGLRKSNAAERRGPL

DRB1*0901 = DRB1*0901 (Homo sapiens, UniProt P01903+P01911, A100R/A103E/D57H/D86V/F55Y/F60I/F76Y/I96F/K127E/L162R/M171V/P40D/Q125H/Q99R/R33Q/R42F/S133A/S66N/T210M/V115G/W38K/Y107V/Y59G/Y89S); format: binding
DRB1*0301 = DRB1*0301 (Homo sapiens, UniProt P01903+P01911, A100K/A102G/A103R/A169T/F55Y/I96L/K41T/L162R/M171V/P40S/Q125H/Q178H/Q39Y/R42S/S66N/T106N/T262R/W38E/Y61H); format: binding
Sequence of DRB1*0301 (P01903 26-254 limits assumed, other chains not shown): as above

DRB1*1101 = DRB1*1101 (Homo sapiens, UniProt P01903+P01911, A100R/A169T/A87E/I96F/K41T/L162R/M171V/P40S/Q125H/Q178H/Q39Y/Q99D/R42S/S66Y/T262R/V115G/W38E); settings: Binding affinity DRB1 *1101
Sequence of DRB1*1101 (P01903 26-254 limits assumed, other chains not shown): as above

DRB1*0802 = DRB1*0802 (Homo sapiens, UniProt P01903+P01911, A100R/A103L/A169T/F76Y/H45Y/I96F/K41T/L162R/M171V/P40S/Q125H/Q178H/Q39Y/Q99D/R218S/R42G/S66Y/V115G/W38E); format: binding
DRB4*0101 = DRB4*0101 (Homo sapiens, UniProt P01903+P13762, G164S); format: binding
DR4w4 (DRB1*0401) = DR4w4 (DRB1*0401) (Homo sapiens, UniProt P01903+P01911, A100K/A169T/F76Y/I96L/K127E/L162R/M171V/N62H/P40V/Q125Y/R42H/S133A/S149N/S66Y/V115G/V209L/W38E); format: binding
DR1 (DRB1*0101) = DR1 (DRB1*0101) (Homo sapiens, UniProt P01903+P01911, A100R/D57E/F55L/F60I/F76Y/I96L/L162R/M171V/P40L/Q125E/R42F/V115G/Y59C); format: binding
DRB1*0405 = DRB1*0405 (Homo sapiens, UniProt P01903+P01911, A100R/A169T/D86S/F76Y/I96L/K127E/L162R/M171V/N62H/P40V/Q125Y/R42H/S133A/S149N/S66Y/V115G/V209L/W38E); format: binding
DRB1*1201 = DRB1*1201 (Homo sapiens, UniProt P01903+P01911, A100R/A169T/D57E/D86V/F55L/H45Y/K41T/L162R/M171V/P40S/Q125H/Q178H/Q39Y/Q99D/R42G/S66L/T262R/V114A/V67L/W38E/Y59H/Y61H/Y89S); format: binding

| Compound | IC50 (DRB5*0101) [nM] | IC50 (DR7 (DRB1*0701)) [nM] | IC50 (DRB1*1501) [nM] | IC50 (DRB1*1302) [nM] | IC50 (DRB1*0901) [nM] | IC50 (DRB1*0301) [nM] | IC50 (DRB1*1101) [nM] | IC50 (DRB1*0802) [nM] | IC50 (DRB4*0101) [nM] | IC50 (DR4w4 (DRB1*0401)) [nM] | IC50 (DR1 (DRB1*0101)) [nM] | IC50 (DRB1*0405) [nM] | IC50 (DRB1*1201) [nM] |
| --- | --- | --- | --- | --- | --- | --- | --- | --- | --- | --- | --- | --- | --- |
| VSKLMSQLLNIPETH [Peptide 89.0101] | > 20000 | > 20000 | > 20000 | 9530 | > 20000 | 922 | > 20000 | > 20000 | > 20000 | 10600 | > 20000 | – | – |
| RLNLDNDEDKENNGD [Peptide 90.0144] | – | 865 | 581 | 1390 | 19700 | – | 1600 | 4010 | 25 | 1780 | 31 | 1680 | 4410 |
| AYGISFMELVRPFKS [Peptide 89.0060] | 3030 | – | – | 4490 | – | 7090 | 51 | 158 | 31 | 1720 | 640 | 4260 | – |
| NGVLQGITSWGSEPC [Peptide 68.0081] | – | – | – | – | – | > 20000 | – | – | – | – | – | – | – |
| TPEWIERQTVLQHSF [Peptide 89.0048] | > 20000 | > 20000 | 6060 | 5480 | > 20000 | 34 | – | – | 19 | 451 | 643 | – | – |
| TVEVQFDGDICNTMH [Peptide 90.0167] | > 20000 | 250 | 5080 | 39 | 583 | – | > 20000 | > 20000 | 235 | 818 | 2300 | > 20000 | > 20000 |
| KWGVLILALLRYKCG [Peptide 89.0027] | – | > 20000 | 3740 | 571 | 810 | > 20000 | 490 | – | – | 584 | – | – | – |
| LVEVTLGEVPAAESPD [Peptide F160.17] | – | – | – | – | – | 4020 | – | – | – | 976 | – | – | – |
| EVQIALESLSTTIYN [Peptide 90.0231] | > 20000 | 32 | – | 4.3 | 406 | 708 | > 20000 | > 20000 | 39 | 1280 | – | 4270 | – |
| VMFLRYQGVEFMSFL [Peptide 89.0014] | 701 | 2540 | 30 | – | 4020 | 18700 | – | 13400 | 13 | 927 | 605 | 629 | – |
| HIEFTPTRTDTYACRV [Peptide 530.12] | – | > 12500 | – | – | – | 30000 | – | – | – | – | – | – | – |
| TTIYNNEEWTLRDTC [Peptide 90.0232] | > 20000 | > 20000 | 10200 | 1010 | > 20000 | – | 3430 | > 20000 | > 20000 | > 20000 | 10600 | > 20000 | > 20000 |
| AFQVIELQMALETLS [Peptide 89.0181] | 1690 | – | > 20000 | – | – | 33 | 2140 | 8160 | 349 | 62 | 3110 | 252 | – |
| GQVIVCPASVSSNEV [Peptide 90.0016] | 8640 | 56 | 461 | 94 | 197 | 7740 | 4820 | – | 197 | 64 | 24 | – | – |
| TPEWIQRQTVLQHSF [Peptide 89.0010] | 4120 | 321 | > 20000 | 2100 | 2870 | – | 738 | 2000 | 33 | 80 | – | 17 | > 20000 |
| VMAIFGVNPTVAEGF [Peptide 89.0080] | 19400 | 336 | – | 33 | 12900 | 699 | 5600 | > 20000 | 80 | 77 | 190 | 17 | – |
| HWKLIRMECAIMYTA [Peptide 90.0021] | 3070 | 2640 | 3840 | 54 | – | 82 | – | 14100 | 161 | – | 28 | 84 | – |
| LIRMECAIMYTARQM [Peptide 90.0022] | 6470 | 473 | 1480 | 241 | 4120 | – | 738 | 3060 | 158 | 433 | – | 815 | 201 |
| CTLVAGEVDYVGLYY [Peptide 90.0252] | > 20000 | > 20000 | > 20000 | 714 | 981 | – | 6720 | > 20000 | 20 | 776 | > 20000 | 9020 | 3630 |
| CC(C)C[C@H](NC(=O)[C@H](CCC(=O)O)NC(=O)[C@H](CCCCN)NC(=O)[C@H](C)N)C(=O)N[C@@H](CCCCN)C(=O)N[C@@H](Cc1ccccc1)C(=O)N[C@H](C(=O)N[C@H](C(=O)N[C@@H](CC(C)C)C(=O)N[C@H](C(=O)N[C@@H](Cc1ccccc1)C(=O)N[C@@H](CCCNC(=N)N)C(=O)N[C@@H](Cc1c[nH]cn1)C(=O)NCC(=O)N[C@@H](CC(=O)O)C(=O)O)C(C)C)[C@@H](C)O)C(C)C [Peptide 68.0025] | – | – | – | – | – | > 20000 | – | – | – | – | – | – | – |
| FIHFLQGAIISFVNS [Peptide 89.0088] | > 20000 | – | – | 1590 | 867 | 4390 | 5600 | > 20000 | 1680 | 2910 | 51 | – | – |
| GLYYWCDGEKIYFVK [Peptide 90.0226] | > 20000 | 4930 | 1300 | – | > 20000 | 432 | 9140 | > 20000 | > 20000 | – | 698 | – | – |
| DLRVVQQLLMGALTV [Peptide 85.0092] | – | – | 57 | – | – | > 20000 | 754 | – | – | – | – | – | – |
| TAIFGVNPTIAEGFK [Peptide 89.0024] | 17900 | 180 | 11500 | – | 4480 | 374 | 4040 | 11100 | 592 | – | – | 17 | – |
| CC[C@H](C)[C@H](NC(=O)[C@@H](NC(=O)[C@@H]1CCCN1C(=O)[C@H](Cc1ccccc1)NC(=O)[C@H](Cc1ccccc1)NC(=O)[C@H](Cc1ccc(O)cc1)NC(=O)[C@H](CCC(N)=O)NC(=O)[C@H](Cc1c[nH]c2ccccc12)NC(=O)[C@H](CC(N)=O)NC(=O)CNC(=O)[C@@H](N)C(C)C)C(C)C)C(=O)N[C@@H](Cc1ccccc1)C(=O)N[C@@H](CO)C(=O)N[C@@H](CCCCN)C(=O)N[C@@H](C)C(=O)O [Peptide 58.0114] | – | – | – | – | – | 4.1 | – | – | – | – | – | – | – |
| GGDWKQIVMFLRYQG [Peptide 89.0013] | 14 | 2460 | – | 899 | – | 6320 | 198 | – | 7.9 | 793 | 2040 | – | – |
